Experimental data published in patent publication US20080280835A1, “Novel Use of Peptide Compounds For Treating Muscle Pain” (priority 2005, published 2008).

What was measured:
Sprague Dawley rats [1] = experiment: TNF-induced muscle pressure hyperalgesia, gastrocnemius muscle (Randall-Selitto analgesimeter); format: in vivo, rat; conditions: for reversal of muscular mechanical hyperalgesia (withdrawal thresholds to pressure): 18 hours after TNF 1 μg into gastrocnemius, 30 to 60 minutes after drug; for Maximal Possible Effect (MPE) versus vehicle, muscle pressure: FIG. 2; for full reversal of the muscle hyperalgesia: doses tested i.p.: pregabalin 30 and 100 mg/kg, gabapentin 100 mg/kg
Procedure: (§1) Intramuscular injection of tumor necrosis factor-alpha (TNF) was used as a model of muscular mechanical hyperalgesia, which occurs in the human fibromyalgia, myofascial pain syndrome, back pain or osteoarthritis.
(§2) Mechanical withdrawal thresholds to muscle pressure were measured with an analgesimeter exerting pressure on the gastrocnemius muscle previously injected with TNF. Forelimb grip strength was measured with a digital grip force meter after TNF injection into the biceps brachii muscles.
(§3) Adult male Sprague Dawley rats with a body weight of 250 g to 300 g were used (supplier: Charles River Sulzfeld Germany). Animals were group-housed (3 animals per cage) and maintained in a room with controlled temperature (21-22° C.) and a reversed light-dark cycle (12 h/12 h) with food and water available ad libitum. All experiments were approved by the Bavarian State animal experimentation committee and carried out in accordance with its regulations.
(§4) Recombinant rat tumor necrosis factor alpha (herein referred to as TNF) was obtained from R&D Systems, Minneapolis, Minn., USA. TNF was diluted in 0.9% NaCl and used in a concentration of 1 μg in 50 μl. Injections were performed in short halothane narcosis with a 30 g needle bilaterally into the gastrocnemius or into the biceps brachii muscle. All rats were used to the behavioral tests before injections and baseline values were recorded over three test days.
Mechanical withdrawal thresholds to muscle pressure were measured with an analgesimeter (Ugo Basile, Comerio, Italy). The rat is allowed to crawl into a sock which helps the rat to relax. The hind limbs were positioned such that an increasing pressure could be applied onto the gastrocnemius muscle (maximum 250 g). The pressure needed to elicit withdrawal was recorded. Means of 3 trials for each hind limb were calculated (interstimulus interval of >30 sec). Only animals with a significant TNF effect were included for further analysis.
Rats were injected with TNF into the M. gastrocnemius at […]. 18 hours later, rats were tested for pressure hyperalgesia pre- and post-application of the drugs. Rats were tested for pressure hyperalgesia 30 to 60 minutes after drug administration.
(§5) […] Injection volume of i.p. injections was 0.5 ml.
(§6) Data are shown in graphs displaying means and SEMs. Pre- and post-treatment data were compared using ANOVA (Analysis Of Variance) and a Tukey post hoc test. Means of treatment groups were compared using a one-way ANOVA and Dunnett's post hoc Test. Maximal possible effects (MPE) were calculated for all types of treatment.

Sprague Dawley rats [2] = experiment: TNF-induced reduction of forelimb grip strength, biceps brachii muscle; format: in vivo, rat; conditions: for reversal of the TNF induced reduction of grip strength: 6 hours after TNF 1 μg into biceps brachii, 30 to 60 minutes after drug; for MPE versus vehicle, grip strength: FIG. 4; for dose at which the effect of TNF on grip strength is reversed / grip strength improved: i.p., grip strength test
Procedure: as §1, §2, §3, §4
Grip strength of the forelimbs was tested with a digital grip force meter (DFIS series, Chatillon, Greensboro, N.C., USA). The rat was positioned to grab the grid with the forelimbs and was gently pulled so that the grip strength could be recorded. Means of three trials were calculated. The effect of the TNF treatment was calculated for each animal separately and only animals with a significant TNF effect were included for further analysis.
Rats were injected with TNF into the M. biceps brachii at 8 am. 6 hours later, grip strength of the forelimbs was tested with a digital grip force meter. Drugs were applied, and grip strength was again tested after 30 to 60 minutes.
as §5, §6

Wistar rats [3] = experiment: Tactile allodynia (von Frey filaments) in iodoacetate rat model of osteoarthritic pain; format: in vivo
Wistar rats [4] = experiment: Mechanical hyperalgesia (Randall-Selitto paw pressure) in iodoacetate rat model of osteoarthritic pain; format: in vivo; conditions: for paw pressure withdrawal threshold compared to iodoacetate/vehicle treated animals: day 3 after iodoacetate
[5] = 30 mg/kg p.o., day 7 after iodoacetate
[6] = 3 mg/kg s.c., day 7 after iodoacetate

## CC(C)C[C@H](CN)CC(=O)O [pregabalin]
Sprague Dawley rats [1]; 30 mg/kg i.p.
  reversal of muscular mechanical hyperalgesia (withdrawal thresholds to pressure): significant reversal
  Maximal Possible Effect (MPE) versus vehicle, muscle pressure: significantly different from vehicle
Sprague Dawley rats [1]; 100 mg/kg i.p.
  reversal of muscular mechanical hyperalgesia (withdrawal thresholds to pressure): significant reversal
  Maximal Possible Effect (MPE) versus vehicle, muscle pressure: significantly different from vehicle
Sprague Dawley rats [1]
  full reversal of the muscle hyperalgesia: Neither pregabalin nor gabapentin lead to a full reversal
Sprague Dawley rats [2]; 100 mg/kg i.p.
  reversal of the TNF induced reduction of grip strength: significant reversal
  MPE versus vehicle, grip strength: significantly different from vehicle
Sprague Dawley rats [2]
  dose at which the effect of TNF on grip strength is reversed / grip strength improved: 100 mg/kg

## COC[C@@H](NC(C)=O)C(=O)NCc1ccccc1 [lacosamide, (R)-2-acetamido-N-benzyl-3-methoxy-propionamide]
Sprague Dawley rats [1]; 10 mg/kg i.p.
  Maximal Possible Effect (MPE) versus vehicle, muscle pressure: significantly different from vehicle
Sprague Dawley rats [1]; 30 mg/kg i.p.
  reversal of muscular mechanical hyperalgesia (withdrawal thresholds to pressure): complete reversal
  Maximal Possible Effect (MPE) versus vehicle, muscle pressure: significantly different from vehicle
Sprague Dawley rats [1]; 3, 10, 30 mg/kg i.p.
  muscle hyperalgesia induced by TNF injection in the paw pressure test, dose dependence: dose dependently improves
Wistar rats [3]; 30 mg/kg p.o., day 3 after iodoacetate, 60 minutes after drug
  improvement of tactile allodynia: improved
Wistar rats [3]; [5]
  improvement of tactile allodynia: improved
Wistar rats [3]; lower doses (3 and 10 mg/kg p.o.)
  improvement of tactile allodynia: showed a trend for such improvement
Sprague Dawley rats [2]; 10 mg/kg i.p.
  reversal of the TNF induced reduction of grip strength: significant reversal
  MPE versus vehicle, grip strength: significantly different from vehicle
Sprague Dawley rats [2]; 30 mg/kg i.p.
  reversal of the TNF induced reduction of grip strength: significant reversal
  MPE versus vehicle, grip strength: significantly different from vehicle
Sprague Dawley rats [2]
  dose at which the effect of TNF on grip strength is reversed / grip strength improved: 10 mg/kg
Wistar rats [4]; 3 mg/kg p.o.
  paw pressure withdrawal threshold compared to iodoacetate/vehicle treated animals: increase in paw pressure withdrawal threshold
Wistar rats [4]; 3 mg/kg p.o., day 7 after iodoacetate
  mechanical hyperalgesia: reduced mechanical hyperalgesia
Wistar rats [4]; 10 mg/kg p.o., day 7 after iodoacetate
  mechanical hyperalgesia: reduced mechanical hyperalgesia
Wistar rats [4]; 10 mg/kg p.o., day 14 after iodoacetate
  mechanical hyperalgesia: did not show a statistically significant effect
Wistar rats [4]; [5]
  mechanical hyperalgesia: reduced mechanical hyperalgesia

## Cc1c(N(C)CS(=O)(=O)O)c(=O)n(-c2ccccc2)n1C [metamizol]
Sprague Dawley rats [1]; 2 mg/kg i.p.
  reversal of muscular mechanical hyperalgesia (withdrawal thresholds to pressure): complete reversal
  Maximal Possible Effect (MPE) versus vehicle, muscle pressure: significantly different from vehicle
Sprague Dawley rats [2]; 2 mg/kg i.p.
  reversal of the TNF induced reduction of grip strength: significant reversal
  MPE versus vehicle, grip strength: significantly different from vehicle

## O=C(O)Cc1ccccc1Nc1c(Cl)cccc1Cl [diclofenac]
Wistar rats [4]; 30 mg/kg s.c.
  paw pressure withdrawal threshold compared to iodoacetate/vehicle treated animals: increase in paw pressure withdrawal threshold
Wistar rats [4]; 30 mg/kg s.c., day 7 after iodoacetate
  mechanical hyperalgesia: reduced mechanical hyperalgesia

## CN1CC[C@]23c4c5ccc(O)c4O[C@H]2[C@@H](O)C=C[C@H]3[C@H]1C5 [morphine]
Wistar rats [3]; 3 mg/kg s.c., day 3 after iodoacetate
  improvement of tactile allodynia: improved
Wistar rats [3]; [6]
  improvement of tactile allodynia: improved
Wistar rats [4]; 3 mg/kg s.c.
  paw pressure withdrawal threshold compared to iodoacetate/vehicle treated animals: increase in paw pressure withdrawal threshold
Wistar rats [4]; [6]
  mechanical hyperalgesia: reduced mechanical hyperalgesia

## NCC1(CC(=O)O)CCCCC1 [gabapentin]
Sprague Dawley rats [1]; 100 mg/kg i.p.
  reversal of muscular mechanical hyperalgesia (withdrawal thresholds to pressure): significant reversal
  Maximal Possible Effect (MPE) versus vehicle, muscle pressure: significantly different from vehicle
Sprague Dawley rats [1]
  full reversal of the muscle hyperalgesia: Neither pregabalin nor gabapentin lead to a full reversal
Sprague Dawley rats [2]; 100 mg/kg i.p.
  reversal of the TNF induced reduction of grip strength: significant reversal
  MPE versus vehicle, grip strength: significantly different from vehicle
Sprague Dawley rats [2]
  dose at which the effect of TNF on grip strength is reversed / grip strength improved: 100 mg/kg
